Data: ChEMBL document CHEMBL1201862, “PubChem BioAssay data set” (2004)
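Results reflect a 48-hour exposure of cells in 96-well plates to compound at five concentrations. GI50: concentration for 50% inhibition of growth.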 Activity calls are given as the source filed them. Rule as the data show it: active = GI50 up to about 1.1 µM and inactive = higher.

Experiments:
Test in all cases: NCI tumour cell line growth inhibition, 48 h
NCI-H460 = system: NCI-H460
NCI-H226 = system: NCI-H226
SK-MEL-5 = system: SK-MEL-5
HCT-15 = system: HCT-15
KM12 = system: KM12
EKVX = system: EKVX
Hs-578T = system: Hs-578T
NCI-H522 = system: NCI-H522
UO-31 = system: UO-31
LOX IMVI = system: LOX IMVI
BT-549 = system: BT-549
PC-3 = system: PC-3
MDA-MB-435 = system: MDA-MB-435
SNB-75 = system: SNB-75
RXF 393 = system: RXF 393
NCI/ADR-RES = system: NCI/ADR-RES
HOP-92 = system: HOP-92
A549 = system: A549
MDA-MB-231 = system: MDA-MB-231
RPMI-8226 = system: RPMI-8226

Row | Structure (SMILES) | GI50 (NCI-H460) | GI50 (NCI-H226) | GI50 (SK-MEL-5) | GI50 (HCT-15) [µM] | GI50 (KM12) | GI50 (EKVX) | GI50 (Hs-578T) | GI50 (NCI-H522) | GI50 (UO-31) | GI50 (LOX IMVI) | GI50 (BT-549) | GI50 (PC-3) | GI50 (MDA-MB-435) | GI50 (SNB-75) | GI50 (RXF 393) | GI50 (NCI/ADR-RES) | GI50 (HOP-92) | GI50 (A549) | GI50 (MDA-MB-231) | GI50 (RPMI-8226)
1 | Nc1ncnc2c1ncn2CCCCC(=O)O | > 100 µM (inactive) | > 100 µM (inactive) | > 100 µM (inactive) | > 100 | > 100 µM (inactive) | > 100 µM (inactive) | > 100 µM (inactive) | > 100 µM (inactive) | > 100 µM (inactive) | > 100 µM (inactive) | > 100 µM (inactive) | > 100 µM (inactive) | > 100 µM (inactive) | > 100 µM (inactive) | > 100 µM (inactive) | > 100 µM (inactive) | > 100 µM (inactive) | > 100 µM (inactive) | > 100 µM (inactive) | > 100 µM (inactive)
2 | CC1(C)CC(=O)C(C(c2cccc(O)c2O)C2C(=O)CC(C)(C)CC2=O)C(=O)C1 | > 100 µM (inactive) | > 100 µM (inactive) | > 100 µM (inactive) | 57.1 | > 100 µM (inactive) | > 100 µM (inactive) | 74.5 µM (inactive) | 63.2 µM (inactive) |  | 81.8 µM (inactive) | > 100 µM (inactive) | > 100 µM (inactive) | 91 µM (inactive) | > 100 µM (inactive) | > 100 µM (inactive) | > 100 µM (inactive) | 49.3 µM (inactive) | > 100 µM (inactive) | > 100 µM (inactive) | > 100 µM (inactive)
3 | c1ccc2c[n+](CCCCCCCCCC[n+]3ccc4ccccc4c3)ccc2c1 | > 10 µM (inactive) | > 3.34 µM (inactive) | 2.66 µM (inactive) | > 10 | > 5.68 µM (inactive) | 2.07 µM (inactive) | 9.91 µM (inactive) | 4.17 µM (inactive) | > 10 µM (inactive) | > 10 µM (inactive) | 2.11 µM (inactive) | > 7.52 µM (inactive) | > 10 µM (inactive) | 3.68 µM (inactive) | > 10 µM (inactive) | > 10 µM (inactive) | > 10 µM (inactive) | 0.585 µM (active) | > 10 µM (inactive) | > 10 µM (inactive)
4 | COC(=O)C12OCC34C(CC5C(C)=C(O)C(=O)CC5(C)C3C(O)C1O)OC(=O)C(OC(=O)C=C(C)C)C24 (stereo unspecified) | 161 µM (inactive) | 436 µM (inactive) | 191 µM (inactive) | > 500 | 411 µM (inactive) | > 469 µM (inactive) | < 0.215 µM (active) | 301 µM (inactive) | > 500 µM (inactive) | 283 µM (inactive) | 0.26 µM (active) | 0.23 µM (active) | < 0.215 µM (active) | 318 µM (inactive) | 303 µM (inactive) | > 500 µM (inactive) | 234 µM (inactive) | > 500 µM (inactive) | 0.0234 µM (active) | 361 µM (inactive)
5 | Oc1nc2c(c(-c3ccc(Br)cc3)n1)COC/C2=C\c1ccc(Br)cc1 | > 50 µM (inactive) | > 50 µM (inactive) | > 50 µM (inactive) | > 50 | > 50 µM (inactive) | > 50 µM (inactive) | > 50 µM (inactive) | > 50 µM (inactive) | > 50 µM (inactive) | > 50 µM (inactive) | > 50 µM (inactive) | > 50 µM (inactive) | 29.4 µM (inactive) | > 50 µM (inactive) | > 50 µM (inactive) | > 50 µM (inactive) | > 50 µM (inactive) |  | > 50 µM (inactive) | > 50 µM (inactive)
6 | Cc1nn(C(=O)c2ccc(Cl)cc2)c2c1C(c1ccc(O)cc1)SC(=N)N2 (stereo unspecified) | > 10 µM (inactive) | > 10 µM (inactive) | > 10 µM (inactive) | > 10 | > 10 µM (inactive) | > 10 µM (inactive) | > 10 µM (inactive) | > 10 µM (inactive) |  | > 10 µM (inactive) | > 10 µM (inactive) | > 10 µM (inactive) | > 10 µM (inactive) | > 10 µM (inactive) | > 10 µM (inactive) | > 10 µM (inactive) | > 10 µM (inactive) | > 10 µM (inactive) | > 10 µM (inactive) | > 10 µM (inactive)
7 | COC1CCC(O)C(/C=C/[N+](=O)[O-])C1 (stereo unspecified) | 2.62 µM (inactive) | 2.07 µM (inactive) | 4.06 µM (inactive) | 1.82 | 4.14 µM (inactive) | 4.56 µM (inactive) | 2.99 µM (inactive) | 10.9 µM (inactive) | 1.81 µM (inactive) | 1.54 µM (inactive) | 2.58 µM (inactive) | 2.06 µM (inactive) | 1.65 µM (inactive) | 9.68 µM (inactive) | 1.42 µM (inactive) | 15 µM (inactive) | 12.5 µM (inactive) | 10.6 µM (inactive) | 4.82 µM (inactive) | 1.55 µM (inactive)
8 | Nc1ccc(S(=O)(=O)Nc2nc3ccccc3nc2N2CCCCC2)cc1 | 79.3 µM (inactive) | > 100 µM (inactive) | 91 µM (inactive) | 78.7 | 70.1 µM (inactive) | > 100 µM (inactive) | > 100 µM (inactive) | 31.1 µM (inactive) | 11.3 µM (inactive) | > 100 µM (inactive) | 23.8 µM (inactive) | 59.3 µM (inactive) | > 100 µM (inactive) | 24.3 µM (inactive) | 55.2 µM (inactive) | 46.3 µM (inactive) | 53 µM (inactive) | 48.1 µM (inactive) | > 100 µM (inactive) | 58.9 µM (inactive)
9 | COC(=O)[C@@H]1Cc2cc(O)c(O)cc2C2(CCN(C)CC2)O1 | > 10 µM (inactive) | > 10 µM (inactive) | > 10 µM (inactive) | > 10 | > 10 µM (inactive) | > 10 µM (inactive) | > 10 µM (inactive) | > 10 µM (inactive) |  | > 10 µM (inactive) | > 10 µM (inactive) | > 10 µM (inactive) | > 10 µM (inactive) | > 10 µM (inactive) | > 10 µM (inactive) | > 10 µM (inactive) | > 10 µM (inactive) | > 10 µM (inactive) | > 10 µM (inactive) | > 10 µM (inactive)
10 | CC(=O)OC[C@H]1On2nnnc2[C@H](OC(C)=O)[C@@H](OC(C)=O)[C@@H]1OC(C)=O | > 100 µM (inactive) | > 100 µM (inactive) | > 100 µM (inactive) | > 100 | > 100 µM (inactive) | > 100 µM (inactive) | > 100 µM (inactive) | > 100 µM (inactive) | > 100 µM (inactive) | > 100 µM (inactive) | > 100 µM (inactive) | > 100 µM (inactive) | > 100 µM (inactive) | > 100 µM (inactive) | > 100 µM (inactive) | 91.8 µM (inactive) | > 100 µM (inactive) | > 100 µM (inactive) | > 100 µM (inactive) | > 100 µM (inactive)
11 | CN(C)CCNC(=O)c1cccc2c(NCCN(C)C)c3ccccc3nc12 | 1.37 µM (inactive) | 1.37 µM (inactive) | 3.48 µM (inactive) | 3.63 | 2.79 µM (inactive) | 2.99 µM (inactive) | 2.66 µM (inactive) | 1.37 µM (inactive) | 2.92 µM (inactive) | 1.55 µM (inactive) | 7.59 µM (inactive) | 2.42 µM (inactive) | 2.94 µM (inactive) | 5.06 µM (inactive) | 3.6 µM (inactive) | 7.78 µM (inactive) | 2.16 µM (inactive) | 1.91 µM (inactive) | 2 µM (inactive) | 2.41 µM (inactive)
12 | COc1ccc2c(-c3csc(-c4c[nH]c5ccccc45)n3)c[nH]c2c1 | 2.29 µM (inactive) | 9.4 µM (inactive) | 7.18 µM (inactive) | 1.45 | 3.21 µM (inactive) | 1.37 µM (inactive) | 12.5 µM (inactive) | 4.04 µM (inactive) | 5.9 µM (inactive) | 2.75 µM (inactive) | 11.8 µM (inactive) | 4.7 µM (inactive) | 13.8 µM (inactive) | 22 µM (inactive) | 5.01 µM (inactive) | 6.61 µM (inactive) | 7.46 µM (inactive) | 4.98 µM (inactive) | 5.2 µM (inactive) | 3.77 µM (inactive)
13 | Cc1c(Cl)ccc2c1NC(=O)C2(O)CC(=O)c1ccc(Cl)cc1Cl (stereo unspecified) | > 50 µM (inactive) | > 29.4 µM (inactive) | > 50 µM (inactive) | > 50 | > 50 µM (inactive) | > 46.5 µM (inactive) | 12.9 µM (inactive) | > 50 µM (inactive) | > 50 µM (inactive) | > 50 µM (inactive) | > 50 µM (inactive) | > 50 µM (inactive) | > 50 µM (inactive) | 12.8 µM (inactive) | 20.1 µM (inactive) | > 50 µM (inactive) | 23.6 µM (inactive) | > 50 µM (inactive) | 30.5 µM (inactive) | > 41 µM (inactive)
14 | O=c1c(C(c2cccnc2)c2c(O)oc3cc(O)ccc3c2=O)c(O)oc2cc(O)ccc12 | > 100 µM (inactive) | > 100 µM (inactive) | > 100 µM (inactive) | > 100 | > 100 µM (inactive) | > 100 µM (inactive) | > 100 µM (inactive) | > 100 µM (inactive) | > 100 µM (inactive) | > 100 µM (inactive) | > 100 µM (inactive) | > 100 µM (inactive) | > 100 µM (inactive) | > 100 µM (inactive) | > 100 µM (inactive) | > 100 µM (inactive) | > 100 µM (inactive) | > 100 µM (inactive) | > 100 µM (inactive) | > 100 µM (inactive)
